The text below walks through data of patent US12403184B2, “Compositions and methods for treating neurodegenerative disroders” (priority 2018, dated 2025).

Where no end group is shown, it is not given here.

In one assay the test system is YAC128 mice. Put plainly: Locomotion activity in YAC128 mice. The format is in vivo, mouse. The note with it: 1 mg/kg/day from 3 to 12 months, effect from 6 until 12 months of age. An excerpt: YAC128 [FVB-Tg(YAC128)53Hay/J, JAX stock number: 004938] breeders (FVB/N genetic background) were purchased from Jackson Laboratories. The YAC128 mice contain a full-length human huntingtin gene modified with a 128 CAG repeat expansion in exon 1. The mice were mated, bred, and genotyped in the animal facility of Case Western Reserve University. Male mice at the ages of 2, 3, 6, 9, and 12 months were used in the study.
Systemic peptide treatment in HD mice. All randomization and peptide treatments were prepared by an experimenter not associated with behavioral and neuropathology analysis. Male R6/2 mice (Tg) and their age-matched wild-type littermates (Wt) (6-week-old) were implanted with a 28-day osmotic pump (Alzet, Cupertino CA, Model 2004) containing TAT control peptide or DA1 peptide, which delivered peptides at a rate of 1 mg/kg/day. Male YAC128 mice (Tg) and their age-matched wild-type littermates (WT) were treated with TAT control peptide or DA1 peptide (1 mg/kg/day) by Alzet osmotic pump starting from the age of 3 months. The pump was replaced once every month.
Gross locomotor activity was assessed in R6/2 mice and age-matched wild-type littermates at the ages of 12 weeks, and in YAC128 mice and age-matched wildtype littermates at the ages of 2, 3, 6, 9, and 12 months. […] Distance moved, horizontal and vertical activities were recorded. […]

In assay [1] the test system is neurons derived from HD patient-iPS cells. The assay can be described thus: Mitochondrial and neuronal morphology in neurons derived from iPS cells. The format is cell-based, human. As for the experimental part: iPS cells from a normal subject and a HD patient (carrying 41 CAG repeats) were differentiated into neurons using the protocol from our previous studies. Briefly, the iPS cells were plated onto 6-well plates precoated with 2.5% Matrigel and allowed to reach 90% confluence in feeder-free medium. For the first 10 days, the cells were treated with SB431542 (10 μM; Tocris Bioscience) and Noggin (100 ng/ml) in Neural Media (NM) containing Neurobasal and DMEM (1:1), B-27 supplement minus vitamin A (50×, Invitrogen), N2 supplement (100×, Invitrogen), GlutaMax (Invitrogen, 100×), FGF2 ([…]) and EGF ([…]), and 100 units/ml penicillin and 100 μg/ml streptomycin). For the next 10 days, the cells were treated with human recombinant Sonic hedgehog (SHH, 200 ng/ml), DKK1 (100 ng/ml) and BDNF (20 ng/ml), and 10 μM Y27632 (Sigma) in neuronal differentiation medium containing Neurobasal and DMEM (1:3), B27, N2, GlutaMax, and PS. Cells were then switched to treatment with BDNF (20 ng/ml), ascorbic acid (200 μM, Sigma-Aldrich), cAMP (0.5 mM, Sigma-Aldrich), and Y27632 (10 μM) in neuronal differentiation medium. All growth factors were purchased from PeproTech (Rocky Hill, NJ, USA). Twenty days after the initiation of differentiation, the neurons (about 5000 cells) were plated onto 12-mm poly-Dlysine/laminine-coated coverslips and grown in 24-well plates in neuronal differentiation medium.
Neurons derived from iPS cells were stained with anti-Tom20 (a mitochondrial marker) and anti-GAD67 (a striatal neuronal marker). Quantitation of mitochondrial length along the neurites was conducted only in the neurons immuno-positive for GAD67. To analyze dendrite and axon outgrowth of neurons, cells were stained with anti-MAP2 (a dendritic marker) and anti-GAD67 or anti-Tau (an axonal marker) and anti-DARPP32 (a medium spiny neuron marker). The length of MAP2+ dendrite and Tau+ axon in the neurons immuno-positive for GAD67 or DARPP32 was quantitated, respectively. At least 50 neurons/group were counted.

Another assay deals with HdhQ111 cells. The assay can be described thus: Mitochondrial morphology (anti-Tom20 staining) in striatal cells. The settings on record: 1 μM/day for 4 days, relative to TAT. The class given is cell-based, mouse. Here is the method:
Mouse striatal cell lines HdhQ7 and Q111 cells are immortalized from knock-in mice carrying 7 and 111 CAG repeats, respectively, in the mouse htt gene. HdhQ7 and HdhQ111 purchased from CHDI Foundation were cultured in DMEM supplemented with 10% (v/v) heat-inactivated FBS, 1% (v/v) penicillin/streptomycin, and 400 μg/ml G418 at 33° C. with 5% CO2. Cells within 14 passages were used in all experiments.
Cells grown on coverslips were fixed with 4% paraformaldehyde for 20 mins at r.t., permeabilized with 0.1% Triton X-100 in PBS and blocked with 2% normal goat serum. The cells were then incubated with primary antibody (overnight, at 4° C.) followed by Alexa Fluor 568 or 488 secondary antibody (2 h, r.t.). After staining with Nuclei with Hoechst dye (1:10,000 dilution), the cells were mounted onto slides. The cells were imaged by Fluoview FV1000 microscopy (Olympus).

[2] abbreviates: striatal neurons derived from HD patient iPS cells.

Regarding “YGRKKRRQRRRGGEDKRKT-NH2 [DA1, YGRKKRRQRRR-GG-EDKRKT-NH2]”, the general movement activity result in the assay on YAC128 mice is “improved”. In addition, in assay [1] (cells derived from iPS cells of normal subject), the mitochondrial morphology entry is listed as “no observed effects”. For the same substance, the “length of mitochondria along the neurites of GAD67+-neurons” value in assay [1] (neurons derived from HD patient-iPS cells) is recorded as “increased”. In addition, in assay [1] (setting [2]), the “MAP2+ dendritic outgrowth” value was “improved” and the “Tau+ axonal outgrowth” value was “improved”. Further, in the assay with HdhQ111 cells, the “number of cells with fragmented mitochondria” value is given as “reduced”.
